Measurements as given in PubChem BioAssay AID328 (DTP/NCI, 2004).
“And” between values parts separate entries of the source, which are not always exact repeats. Equal values may be shown once. Toxic doses and inconclusive results are not listed. Residues, ends and D or L forms follow the SMILES beside them.

Tested on: BDF1 mice, P388 leukemia ip, median survival T/C
Test: NCI In Vivo Anticancer Drug Screen. Data for tumor model P388 Leukemia (intraperitoneal) in B6D2F1 (BDF1) mice
Conditions: endpoint: median survival time, higher = longer survival
Summary of the method: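 In tumour-bearing mice, survival after compound treatment is set against the vehicle group and given as a quotient.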

[1] = dose: 25.0 mg/kg/injection, schedule: Q01DX009 (ip), vehicle: saline with Tween-80
[2] = dose: 50.0 mg/kg/injection, schedule: Q01DX009 (ip), vehicle: saline with Tween-80
[3] = dose: 100.0 mg/kg/injection, schedule: Q01DX009 (ip), vehicle: saline with Tween-80
[4] = dose: 50.0 mg/kg/injection, schedule: Q01DX001 (ip), vehicle: saline sonified
[5] = dose: 100.0 mg/kg/injection, schedule: Q01DX001 (ip), vehicle: saline sonified
[6] = dose: 100.0 mg/kg/injection, schedule: Q01DX009 (ip), vehicle: Klucel (hydroxypropylcellulose) (HPC)
[7] = dose: 6.25 mg/kg/injection, schedule: Q01DX009 (ip), vehicle: saline with Tween-80
[8] = dose: 50.0 mg/kg/injection, schedule: Q04DX003 (ip), vehicle: saline with Tween-80
[9] = dose: 100.0 mg/kg/injection, schedule: Q04DX003 (ip), vehicle: saline with Tween-80
[10] = dose: 200.0 mg/kg/injection, schedule: Q04DX003 (ip), vehicle: saline with Tween-80
[11] = dose: 200.0 mg/kg/injection, schedule: Q01DX009 (ip), vehicle: saline with Tween-80
[12] = dose: 400.0 mg/kg/injection, schedule: Q04DX003 (ip), vehicle: saline with Tween-80

## O=C(O)CCC(=O)O
dose: 10.0 mg/kg/injection, schedule: Q01DX009 (ip), vehicle: saline
  T/C: 101 % of control and 122 % of control and 100 % of control
dose: 10.0 mg/kg/injection, schedule: Q01DX009 (ip), vehicle: water
  T/C: 111 % of control and 98 % of control
dose: 20.0 mg/kg/injection, schedule: Q01DX009 (ip), vehicle: saline
  T/C: 105 % of control and 115 % of control and 106 % of control
dose: 20.0 mg/kg/injection, schedule: Q01DX009 (ip), vehicle: water
  T/C: 117 % of control and 120 % of control
dose: 25.0 mg/kg/injection, schedule: Q01DX009 (ip), vehicle: other
  T/C: 105 % of control and 120 % of control
dose: 40.0 mg/kg/injection, schedule: Q01DX009 (ip), vehicle: saline
  T/C: 109 % of control and 108 % of control
dose: 40.0 mg/kg/injection, schedule: Q01DX009 (ip), vehicle: water
  T/C: 124 % of control and 100 % of control
dose: 50.0 mg/kg/injection, schedule: Q01DX009 (ip), vehicle: other
  T/C: 103 % of control and 102 % of control
dose: 80.0 mg/kg/injection, schedule: Q01DX009 (ip), vehicle: saline
  T/C: 108 % of control and 117 % of control
dose: 80.0 mg/kg/injection, schedule: Q01DX009 (ip), vehicle: water
  T/C: 115 % of control and 117 % of control
dose: 100.0 mg/kg/injection, schedule: Q01DX009 (ip), vehicle: other
  T/C: 102 % of control and 119 % of control
dose: 160.0 mg/kg/injection, schedule: Q01DX009 (ip), vehicle: saline
  T/C: 114 % of control and 110 % of control
dose: 160.0 mg/kg/injection, schedule: Q01DX009 (ip), vehicle: water
  T/C: 98 % of control and 124 % of control
dose: 200.0 mg/kg/injection, schedule: Q01DX009 (ip), vehicle: other
  T/C: 110 % of control
dose: 200.0 mg/kg/injection, schedule: Q01DX009 (ip), vehicle: saline
  T/C: 99 % of control and 115 % of control

## Cc1cc(/C=C/c2cc[n+](C)c3ccccc23)c(O)c2ncccc12
dose: 3.0 mg/kg/injection, schedule: Q01DX009 (ip), vehicle: saline
  T/C: 163 % of control
dose: 6.0 mg/kg/injection, schedule: Q01DX009 (ip), vehicle: Klucel (hydroxypropylcellulose) (HPC)
  T/C: 155 % of control
dose: 6.0 mg/kg/injection, schedule: Q01DX009 (ip), vehicle: saline
  T/C: 159 % of control
dose: 12.0 mg/kg/injection, schedule: Q01DX009 (ip), vehicle: Klucel (hydroxypropylcellulose) (HPC)
  T/C: 165 % of control
dose: 12.0 mg/kg/injection, schedule: Q01DX009 (ip), vehicle: saline
  T/C: 159 % of control
dose: 24.0 mg/kg/injection, schedule: Q01DX009 (ip), vehicle: saline
  T/C: 168 % of control

## CNCCCC12CC(c3ccccc31)c1ccccc12
[1]
  T/C: 103 % of control
[2]
  T/C: 101 % of control
[3]
  T/C: 112 % of control

## CC(C)NCC(O)COc1ccc(OCc2ccccc2)c(OCc2ccccc2)c1 (stereo not drawn)
[1]
  T/C: 106 % of control
[2]
  T/C: 94 % of control

## CC(=O)C(=O)C(C)=O
dose: 100.0 mg/kg/injection, schedule: Q01DX001 (ip), vehicle: Klucel (hydroxypropylcellulose) (HPC)
  T/C: 105 % of control
dose: 200.0 mg/kg/injection, schedule: Q01DX001 (ip), vehicle: Klucel (hydroxypropylcellulose) (HPC)
  T/C: 100 % of control
dose: 400.0 mg/kg/injection, schedule: Q01DX001 (ip), vehicle: Klucel (hydroxypropylcellulose) (HPC)
  T/C: 105 % of control

## OB(O)C1=CC(c2ccccc2)(c2ccccc2)N=C1
dose: 25.0 mg/kg/injection, schedule: Q01DX001 (ip), vehicle: saline sonified
  T/C: 100 % of control
[4]
  T/C: 100 % of control
[5]
  T/C: 104 % of control

## O=C(O)COc1ccccc1OCC(=O)O
dose: 50.0 mg/kg/injection, schedule: Q01DX009 (ip), vehicle: Klucel (hydroxypropylcellulose) (HPC)
  T/C: 109 % of control
[6]
  T/C: 100 % of control
dose: 200.0 mg/kg/injection, schedule: Q01DX009 (ip), vehicle: Klucel (hydroxypropylcellulose) (HPC)
  T/C: 100 % of control

## CC1(C)CN(Cc2ccccc2)C(C)(C)CN1N
[7]
  T/C: 97 % of control
dose: 12.5 mg/kg/injection, schedule: Q01DX009 (ip), vehicle: saline with Tween-80
  T/C: 101 % of control
dose: 12.5 mg/kg/injection, schedule: Q04DX003 (ip), vehicle: saline with Tween-80
  T/C: 111 % of control
[1]
  T/C: 97 % of control
dose: 25.0 mg/kg/injection, schedule: Q04DX003 (ip), vehicle: saline with Tween-80
  T/C: 107 % of control
[2]
  T/C: 115 % of control
[8]
  T/C: 107 % of control
[9]
  T/C: 111 % of control

## C=CCOc1ccccn1
[8]
  T/C: 90 % of control
[9]
  T/C: 104 % of control
[10]
  T/C: 113 % of control

## COc1ccc(CC2C(=O)NC(C)C(=O)N(C)C3Cc4ccc(cc4)Oc4cc(ccc4O)CC(C(=O)NC(C)C(=O)NC(C)C(=O)N2C)N(C)C3=O)cc1 (stereo not drawn)
dose: 0.04 mg/kg/injection, schedule: Q01DX009 (ip), vehicle: saline
  T/C: 163 % of control
dose: 0.07 mg/kg/injection, schedule: Q01DX009 (ip), vehicle: saline
  T/C: 181 % of control
dose: 0.11 mg/kg/injection, schedule: Q01DX009 (ip), vehicle: saline with Tween-80
  T/C: 196 % of control
dose: 0.11 mg/kg/injection, schedule: Q01DX009 (ip), vehicle: saline
  T/C: 163 % of control
dose: 0.16 mg/kg/injection, schedule: Q01DX009 (ip), vehicle: saline with Tween-80
  T/C: 216 % of control
dose: 0.25 mg/kg/injection, schedule: Q01DX009 (ip), vehicle: saline with Tween-80
  T/C: 160 % of control and 186 % of control
dose: 0.5 mg/kg/injection, schedule: Q01DX009 (ip), vehicle: saline with Tween-80
  T/C: 186 % of control
dose: 1.0 mg/kg/injection, schedule: Q01DX009 (ip), vehicle: saline with Tween-80
  T/C: 189 % of control
dose: 2.0 mg/kg/injection, schedule: Q01DX009 (ip), vehicle: saline with Tween-80
  T/C: 208 % of control
dose: 4.32 mg/kg/injection, schedule: Q04DX003 (ip), vehicle: other
  T/C: 161 % of control and 212 % of control
dose: 7.2 mg/kg/injection, schedule: Q04DX003 (ip), vehicle: other
  T/C: 163 % of control and 208 % of control
dose: 10.0 micrograms/kg/injection, schedule: Q01DX009 (ip), vehicle: saline with Tween-80
  T/C: 108 % of control
dose: 20.0 micrograms/kg/injection, schedule: Q01DX009 (ip), vehicle: saline with Tween-80
  T/C: 108 % of control
dose: 40.0 micrograms/kg/injection, schedule: Q01DX009 (ip), vehicle: saline with Tween-80
  T/C: 119 % of control

## CCC(=O)Oc1c(Cl)c(Cl)c(C#N)c(Cl)c1Cl
[9]
  T/C: 108 % of control
[10]
  T/C: 116 % of control

## O=S(=O)(OCCCl)C(F)(F)F
dose: 1.56 mg/kg/injection, schedule: Q01DX009 (ip), vehicle: saline with Tween-80
  T/C: 119 % of control
dose: 3.12 mg/kg/injection, schedule: Q01DX009 (ip), vehicle: saline with Tween-80
  T/C: 107 % of control
[7]
  T/C: 120 % of control

## NC(=O)CN1C(=O)c2ccccc2C1=O
[3]
  T/C: 100 % of control
[9]
  T/C: 95 % of control
[11]
  T/C: 90 % of control
[10]
  T/C: 100 % of control
dose: 400.0 mg/kg/injection, schedule: Q01DX009 (ip), vehicle: saline with Tween-80
  T/C: 100 % of control
[12]
  T/C: 100 % of control

## c1ccc(-c2nc3ccccc3nc2-c2ccc(Sc3ccc(-c4nc5ccccc5nc4-c4ccccc4)cc3)cc2)cc1
[3]
  T/C: 101 % of control
[11]
  T/C: 93 % of control

## O=C([O][Hg][CH2]C1COC([CH2][Hg][O]C(=O)c2ccccc2)CO1)c1ccccc1 (stereo not drawn)
[9]
  T/C: 113 % of control

## CC1NC(=O)C2CCCN2C(=O)C2CCCN2C(=O)C(C(C)C)NC(=O)C(Cc2ccccc2)NC(=O)C(Cc2ccccc2)NC(=O)C2CCCN2C(=O)C2CCCN2C(=O)C(Cc2ccccc2)NC(=O)C(Cc2ccccc2)NC1=O (stereo not drawn) (cyclo(AFFPPFFVPP); configuration not given here)
dose: 0.5 mg/kg/injection, schedule: Q01DX009 (ip), vehicle: saline
  T/C: 101 % of control
dose: 1.0 mg/kg/injection, schedule: Q01DX009 (ip), vehicle: saline
  T/C: 104 % of control
dose: 2.0 mg/kg/injection, schedule: Q01DX009 (ip), vehicle: saline
  T/C: 104 % of control

## O=C([CH-]C(=O)C(F)(F)F)c1ccccc1.O=C([CH-]C(=O)C(F)(F)F)c1ccccc1.O=C([CH-]C(=O)C(F)(F)F)c1ccccc1.O=C([CH-]C(=O)C(F)(F)F)c1ccccc1.[Eu+3].c1ccncc1
[6]
  T/C: 113 % of control

## CCC1OCC(C(Cl)CCl)O1 (stereo not drawn)
[3]
  T/C: 118 % of control
[9]
  T/C: 113 % of control
[10]
  T/C: 118 % of control
[12]
  T/C: 104 % of control

## OCCNCCN=Cc1ccccc1O
[4]
  T/C: 87 % of control
[5]
  T/C: 91 % of control
dose: 200.0 mg/kg/injection, schedule: Q01DX001 (ip), vehicle: saline sonified
  T/C: 100 % of control

## S=C(c1ccco1)N1CCOCC1
dose: 37.5 mg/kg/injection, schedule: Q01DX009 (ip), vehicle: saline with Tween-80
  T/C: 100 % of control
dose: 75.0 mg/kg/injection, schedule: Q01DX009 (ip), vehicle: saline with Tween-80
  T/C: 104 % of control
dose: 150.0 mg/kg/injection, schedule: Q01DX009 (ip), vehicle: saline with Tween-80
  T/C: 118 % of control
